Reference: BindingDB's records for patent US11814384 (Kinnate Biopharma, 2023)

Biological target: Serine/threonine-protein kinase B-raf (Homo sapiens, UniProt P15056)
Test: Enzymatic BRAF Kinase Activity Assay
Experimental: Small molecule inhibition of the BRAF kinases was measured using ADP-Glo assay. In the assay, […], resulting in luciferase reaction and luminescent readout with light generated proportional to the relative kinase activity. Compounds diluted in DMSO were used in 10-point, 3-fold dose curve for both assays. Final concentrations of 6 nM BRAF (CarnaBio, Cat. 09-122) or 3 nM RAF1 (CarnaBio, Cat. 09-125) and 30 nM MEK1 substrate (Millipore, Cat. 14-420) were incubated with 3 µM ATP, 10 mM MgCl2, 0.003% Brij-35, 2 mM DTT, 0.05% BSA, 1 mM EGTA, and 50 mM HEPES for 90 minutes at room temp prior to addition of ADP-Glo reagent (Promega, Cat. V9102) for 40 minutes, and detection reagent for 45 minutes. Luminescence was read on an Envision plate reader (PerkinElmer) and percent remaining activity was used to calculate IC50 using a four-parameter fit model using Dotmatics Knowledge Solutions Studies curve fitting (Dotmatics, Bishops Stortford, UK, CM23).

Serine/threonine-protein kinase B-raf, sequence (P15056 whole entry): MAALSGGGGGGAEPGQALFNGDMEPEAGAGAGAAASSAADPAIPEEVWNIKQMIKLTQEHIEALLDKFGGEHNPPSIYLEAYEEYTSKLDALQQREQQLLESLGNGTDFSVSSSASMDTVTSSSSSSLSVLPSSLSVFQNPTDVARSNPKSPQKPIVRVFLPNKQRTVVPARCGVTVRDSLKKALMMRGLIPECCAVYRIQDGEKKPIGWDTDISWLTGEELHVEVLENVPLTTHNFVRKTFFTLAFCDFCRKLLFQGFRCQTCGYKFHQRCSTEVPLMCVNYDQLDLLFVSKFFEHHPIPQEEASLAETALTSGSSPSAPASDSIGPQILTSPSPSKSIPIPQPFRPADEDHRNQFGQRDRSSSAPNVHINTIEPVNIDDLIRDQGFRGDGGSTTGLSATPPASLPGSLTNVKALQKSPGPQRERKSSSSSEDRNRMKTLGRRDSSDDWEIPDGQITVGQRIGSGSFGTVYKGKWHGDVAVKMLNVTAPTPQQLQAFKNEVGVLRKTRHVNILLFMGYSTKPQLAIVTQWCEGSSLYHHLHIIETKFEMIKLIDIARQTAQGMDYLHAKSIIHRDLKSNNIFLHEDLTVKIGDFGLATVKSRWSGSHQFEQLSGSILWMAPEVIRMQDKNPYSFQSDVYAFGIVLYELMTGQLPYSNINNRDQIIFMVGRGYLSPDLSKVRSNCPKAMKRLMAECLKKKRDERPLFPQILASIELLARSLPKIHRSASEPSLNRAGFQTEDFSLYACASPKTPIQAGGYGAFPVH

SMILES	IC50
Cc1cc(F)c(NC(=O)c2coc(C(C)(C)C)n2)cc1-c1cc(N2CCOCC2)c2nccn2c1 [US11814384, Example 184]	in the range around 5.5 nM
Cc1ccc(NC(=O)c2cnc(C(C)(C)C)o2)cc1-c1cc(N2CCOCC2)c2nccn2c1 [US11814384, Example 185]	in the range around 5.5 nM
Cc1cc(F)c(NC(=O)c2cnn(C(C)(C)C)n2)cc1-c1cc(N2CCOCC2)c2nccn2c1 [US11814384, Example 186]	in the range around 5.5 nM
Cc1cc(F)c(NC(=O)c2ccnc(C34CC(C3)C4)c2)cc1-c1cc(N2CCOCC2)c2nccn2c1 [US11814384, Example 188]	in the range around 5.5 nM
Cc1cc(F)c(NC(=O)c2cnn(C(C)(C)C)c2F)cc1-c1cc(N2CCOCC2)n2ncnc2c1 [US11814384, Example 189]	in the range around 5.5 nM
Cc1cc(F)c(C(=O)Nc2cnn(C(C)(C)C)c2)cc1-c1cc(N2CCOCC2)c2nccn2c1 [US11814384, Example 204]	in the range around 5.5 nM
Cc1cc(F)c(C(=O)Nc2cccc(C(C)(C)C)c2)cc1-c1cc(N2CCOCC2)c2nccn2c1 [US11814384, Example 205]	in the range around 55 nM
Cc1cc(F)c(NC(=O)c2ccnc3c2ccn3C(C)C)cc1-c1cc(N2CCOCC2)c2nccn2c1 [US11814384, Example 206]	in the range around 5.5 nM
Cc1cc(F)c(NC(=O)c2cnn(C(C)(C)C)c2F)cc1-c1cc(N2CCOCC2)c2nnnn2c1 [US11814384, Example 220]	in the range around 55 nM
CC(C)(C)n1ncc(C(=O)Nc2cc(-c3cc(N4CCOCC4)c4nccn4c3)c(Cl)cn2)c1F [US11814384, Example 226]	in the range around 5.5 nM
Cc1cc(F)c(NC(=O)c2cnn(C(C)(C)C)c2F)cc1-c1cn2ccnc2c(N2CCOCC2)n1 [US11814384, Example 228]	in the range around 5.5 nM
Cc1cc(F)c(NC(=O)c2cc(F)n(C3(C)CC3)c2)cc1-c1cc(N2CCOCC2)c2nccn2c1 [US11814384, Example 247]	in the range around 55 nM
Cc1cc(F)c(C(=O)Nc2cnn(C(C)(C)C)c2F)cc1-c1cc(N2CCOCC2)c2nccn2n1 [US11814384, Example 260]	in the range around 5.5 nM
Cc1cc(F)c(NC(=O)c2ccnc(N(C)C(F)(F)F)c2)cc1-c1cc(N2CCOCC2)c2nccn2c1 [US11814384, Example 263]	in the range around 5.5 nM
Cc1cn2nc(-c3cc(NC(=O)c4cnn(C(C)(C)C)c4F)c(F)cc3C)cc(N3CCOCC3)c2n1 [US11814384, Example 265]	in the range around 5.5 nM
Cc1cn2cc(-c3cc(C(=O)Nc4cnn(C(C)(C)C)c4F)c(F)cc3C)cc(N3CCOCC3)c2n1 [US11814384, Example 267]	in the range around 5.5 nM
Cc1cc(F)c(NC(=O)c2cnn(C(C)(C)C)c2F)cc1-c1cc(N2CCOCC2)c2nc(C)c(F)n2c1 [US11814384, Example 273]	in the range around 5.5 nM

Results, then the molecule that gave them:

IC50	SMILES
in the range around 5.5 nM	Cc1ccc(NC(=O)c2cnn(C(C)(C)C)c2F)cc1-c1cc(N2CCOCC2)c2nc(C)c(F)n2c1 [US11814384, Example 274]
in the range around 55 nM	Cc1nc2cc(-c3cc(NC(=O)c4cnn(C(C)(C)C)c4F)c(F)cc3C)cc(N3CCOCC3)n2n1 [US11814384, Example 282]
in the range around 5.5 nM	Cc1nc2cc(-c3cc(C(=O)Nc4cnn(C(C)(C)C)c4F)c(F)cc3C)cc(N3CCOCC3)n2n1 [US11814384, Example 283]
in the range around 5.5 nM	Cc1nc2c(N3CCOCC3)cc(-c3cc(C(=O)Nc4cnn(C(C)(C)C)c4F)c(F)cc3C)cn2n1 [US11814384, Example 285]
in the range around 55 nM	Cc1nc2cc(-c3cc(NC(=O)c4cnc(C(C)(C)C)o4)c(F)cc3C)cc(N3CCOCC3)n2n1 [US11814384, Example 291]
in the range around 55 nM	Cc1nc2cc(-c3cc(NC(=O)c4coc(C(C)(C)C)n4)c(F)cc3C)cc(N3CCOCC3)n2n1 [US11814384, Example 292]
in the range around 5.5 nM	Cc1nc2c(N3CCOCC3)cc(-c3cc(NC(=O)c4cnc(C(C)(C)C)o4)c(F)cc3C)cn2n1 [US11814384, Example 293]
in the range around 55 nM	Cc1nc2c(N3CCOCC3)cc(-c3cc(NC(=O)c4coc(C(C)(C)C)n4)c(F)cc3C)cn2n1 [US11814384, Example 294]
in the range around 5.5 nM	Cc1nc2c(N3CCOCC3)cc(-c3cc(NC(=O)c4cnn(C(C)(C)C)n4)c(F)cc3C)cn2n1 [US11814384, Example 303]
in the range around 5.5 nM	Cc1cc(F)c(NC(=O)c2cnc(C(C)(C)C)o2)cc1-c1cc(N2CCOCC2)n2nc(C3CC3)nc2c1 [US11814384, Example 304]
in the range around 55 nM	CCc1nc2cc(-c3cc(NC(=O)c4cnc(C(C)(C)C)o4)c(F)cc3C)cc(N3CCOCC3)n2n1 [US11814384, Example 305]
in the range around 5.5 nM	CCc1nc2cc(-c3cc(C(=O)Nc4cnn(C(C)(C)C)c4F)c(F)cc3C)cc(N3CCOCC3)n2n1 [US11814384, Example 306]
in the range around 5.5 nM	Cc1cc(F)c(C(=O)Nc2cnn(C(C)(C)C)c2F)cc1-c1cc(N2CCOCC2)n2nc(C3CC3)nc2c1 [US11814384, Example 307]
in the range around 5.5 nM	Cc1cc(F)c(C(=O)Nc2cnn(C(C)(C)C)c2F)cc1-c1cc(N2CCOCC2)c2nc(C(C)C)nn2c1 [US11814384, Example 308]
in the range around 5.5 nM	Cc1cc(F)c(C(=O)Nc2cnn(C(C)(C)C)c2F)cc1-c1cc(N2CCOCC2)c2nc(N(C)C)nn2c1 [US11814384, Example 309]
in the range around 5.5 nM	Cc1nc2c(N3CCOCC3)cc(-c3cc(C(=O)Nc4cn(C5(C)CC5)nc4F)c(F)cc3C)cn2n1 [US11814384, Example 310]
